The experiment has as its target PDE4D3 (Homo sapiens, UniProt Q08499).

Structures are written as SMILES. Bounds are passed on as bounds.

Sequence of PDE4D3 (Q08499 1-673 isoform Q08499-2): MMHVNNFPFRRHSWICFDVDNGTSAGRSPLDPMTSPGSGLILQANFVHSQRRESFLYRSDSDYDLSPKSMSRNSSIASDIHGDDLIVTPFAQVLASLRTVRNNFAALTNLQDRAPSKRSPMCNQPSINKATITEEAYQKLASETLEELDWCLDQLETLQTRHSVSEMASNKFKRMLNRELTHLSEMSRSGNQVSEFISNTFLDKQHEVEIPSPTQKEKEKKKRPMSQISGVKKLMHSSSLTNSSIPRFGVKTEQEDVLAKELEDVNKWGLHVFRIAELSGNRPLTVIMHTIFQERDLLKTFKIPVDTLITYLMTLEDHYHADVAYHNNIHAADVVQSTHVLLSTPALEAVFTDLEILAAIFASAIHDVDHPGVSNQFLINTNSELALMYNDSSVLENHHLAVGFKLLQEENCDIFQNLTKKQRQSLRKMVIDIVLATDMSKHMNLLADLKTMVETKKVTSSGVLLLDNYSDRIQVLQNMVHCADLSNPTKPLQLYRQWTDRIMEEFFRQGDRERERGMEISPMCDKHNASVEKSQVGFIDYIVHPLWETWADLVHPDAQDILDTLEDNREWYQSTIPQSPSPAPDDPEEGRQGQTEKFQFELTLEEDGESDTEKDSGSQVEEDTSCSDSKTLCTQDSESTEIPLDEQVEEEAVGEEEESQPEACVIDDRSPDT

Broadly, the EC50 is the concentration at which the effect is half-maximal. High values mean lower potency in that assay, low ones higher potency in that assay. Regarding `CCOc1ncc(Cn2cc(Cl)c(N)n2)cc1-c1cccc(Cl)c1` [Example 234, 4-Chloro-1-{[5-(3-chlorophenyl)-6-ethoxypyridin-3-yl]methyl}-1H-pyrazol-3-amine], the EC50 lay in the range of 100 to 1000 nM.
With `COc1ncc(Cc2ccc(C(C)(C)O)cc2)cc1-c1cccc(Cl)c1` [Example 250, 2-(4-{[5-(3-Chlorophenyl)-6-methoxypyridin-3-yl]methyl}phenyl)propan-2-ol], the EC50 was in the range of 100 to 1000 nM.
The result for `CCOc1ncc(Cn2ncc(Cl)c2CO)cc1-c1cccc(Cl)c1` [Example 278, (4-Chloro-1-{[5-(3-chlorophenyl)-6-ethoxypyridin-3-yl]methyl}-1H-pyrazol-5-yl)methanol] reads 100 to 1000 nM; that for `CCOc1ncc(Cn2cnc(C3CC3)n2)nc1-c1cccc(OC(F)F)c1` [Example 186, 5-[(3-Cyclopropyl-1H-1,2,4-triazol-1-yl)methyl]-3-[3-(difluoromethoxy)phenyl]-2-ethoxypyrazine], 1000 to 10000 nM.
As for `COc1ncc(Cc2cnc(OC)c(-c3cccc(Cl)c3)c2)cn1` [Example 76, 5-{[5-(3-Chlorophenyl)-6-methoxypyridin-3-yl]methyl}-2-methoxypyrimidine], the figure is less than 100 nM; as for `COc1ncc(Cn2cc([N+](=O)[O-])cn2)nc1-c1cccc(Cl)c1` [Example 181, 3-(3-Chlorophenyl)-2-methoxy-5-[(4-nitro-1H-pyrazol-1-yl)methyl]pyrazine], 1000 to 10000 nM.
The result for `COc1ncc(Cc2cnc(C#N)nc2)nc1-c1cccc(Cl)c1` [Example 22, 5-{[6-(3-Chlorophenyl)-5-methoxypyrazin-2-yl]methyl}pyrimidine-2-carbonitrile] reads more than 10000 nM; that for `Fc1cccc(-c2cc(Cn3cncn3)cnc2OC(F)F)c1` [Example 174, 2-(Difluoromethoxy)-3-(3-fluorophenyl)-5-(1H-1,2,4-triazol-1-ylmethyl)pyridine], less than 100 nM; that for `Nc1ncn(Cc2cnc(OC(F)F)c(-c3ccnc(OC(F)F)c3)c2)n1` [Example 231, 1-{[6-(Difluoromethoxy)-5-[2-(difluoromethoxy)pyridin-4-yl]pyridin-3-yl]methyl}-1H-1,2,4-triazol-3-amine], 100 to 1000 nM.
With `COc1ncc(Cn2cncn2)cc1-c1cccc(C)n1` [Example 11, 2-Methoxy-3-(6-methylpyridin-2-yl)-5-(1H-1,2,4-triazol-1-ylmethyl)pyridine], the 50% effective concentration (EC50) is more than 10000 nM.
Regarding `FC(F)Oc1ncc(Cc2cncs2)cc1-c1cccc(Cl)c1` [Example 68, 3-(3-Chlorophenyl)-2-(difluoromethoxy)-5-(1,3-thiazol-5-ylmethyl)pyridine], the EC50 is less than 100 nM.
As for `COc1ncc(Cn2cnc(C)n2)cc1-c1cccc(OC(F)F)c1` [Example 155, 3-[3-(Difluoromethoxy)phenyl]-2-methoxy-5-[(3-methyl-1H-1,2,4-triazol-1-yl)methyl]pyridine], the figure is less than 100 nM.
The compound `Cc1cn(Cc2cnc(OC(F)F)c(-c3cccc(Cl)c3)c2)cn1` [Example 154, 3-(3-Chlorophenyl)-2-(difluoromethoxy)-5-[(4-methyl-1H-imidazol-1-yl)methyl]pyridine] yielded an EC50 of 100 to 1000 nM.
As for `COc1ncc(Cc2ccc(C(=O)NC3COC3)cc2)cc1-c1cccc(Cl)c1` [Example 243, 4-{[5-(3-Chlorophenyl)-6-methoxypyridin-3-yl]methyl}-N-(oxetan-3-yl)benzamide], the figure is 1000 to 10000 nM.
The result for `CCOc1ncc(Cn2ncnc2C(F)(F)F)nc1-c1cccc(OC(F)F)c1` [Example 188, 3-[3-(Difluoromethoxy)phenyl]-2-ethoxy-5-{[5-(trifluoromethyl)-1H-1,2,4-triazol-1-yl]methyl}pyrazine] reads 100 to 1000 nM; that for `FC(F)Oc1ncc(Cn2cncn2)cc1-c1cccc(OC(F)(F)F)c1` [Example 176, 2-(Difluoromethoxy)-5-(1H-1,2,4-triazol-1-ylmethyl)-3-[3-(trifluoromethoxy)phenyl]pyridine], 100 to 1000 nM.
As for `CCOc1ncc(Cn2cnc(CO)n2)cc1-c1ccnc(OC(F)F)c1` [Example 206, [1-({5-[2-(Difluoromethoxy)pyridin-4-yl]-6-ethoxypyridin-3-yl}methyl)-1H-1,2,4-triazol-3-yl]methanol], the figure is less than 100 nM; as for `CCOc1ncc(Cn2cc(Cl)c(CO)n2)cc1-c1cccc(Cl)c1` [Example 277, (4-Chloro-1-{[5-(3-chlorophenyl)-6-ethoxypyridin-3-yl]methyl}-1H-pyrazol-3-yl)methanol], 100 to 1000 nM.
Regarding `COc1ncc(Cc2sc(C)nc2C)cc1-c1cccc(Cl)c1` [Example 66, 3-(3-Chlorophenyl)-5-[(dimethyl-1,3-thiazol-5-yl)methyl]-2-methoxypyridine], the EC50 was less than 100 nM.
As for `COc1ncc(Cn2ncnc2CO)nc1-c1cccc(Cl)c1` [Example 210, (1-{[6-(3-Chlorophenyl)-5-methoxypyrazin-2-yl]methyl}-1H-1,2,4-triazol-5-yl)methanol], the figure is 1000 to 10000 nM.
`CCOc1ncc(Cn2cc(CF)nn2)cc1-c1cccc(OC(F)F)c1` [Example 254, 3-[3-(Difluoromethoxy)phenyl]-2-ethoxy-5-{[4-(fluoromethyl)-1H-1,2,3-triazol-1-yl]methyl}pyridine] came in with an EC50 of 100 to 1000 nM.
As for `FC(F)Oc1ncc(Cn2ncnn2)cc1-c1cccc(Cl)c1` [Example 162, 3-(3-Chlorophenyl)-2-(difluoromethoxy)-5-(2H-1,2,3,4-tetrazol-2-ylmethyl)pyridine], the figure is less than 100 nM; as for `COc1ncc(Cn2cnc(N)n2)cc1-c1ccnc(OC(F)F)c1` [Example 229, 1-({5-[2-(Difluoromethoxy)pyridin-4-yl]-6-methoxypyridin-3-yl}methyl)-1H-1,2,4-triazol-3-amine], less than 100 nM; as for `COc1ncc(Cc2cn[nH]c2)cc1-c1cccc(Cl)c1` [Example 80, 3-(3-Chlorophenyl)-2-methoxy-5-(1H-pyrazol-4-ylmethyl)pyridine], less than 100 nM.
The result for `CCOc1ncc(Cn2cc(C(F)F)nn2)cc1-c1cccc(OC(F)F)c1` [Example 269, 3-[3-(Difluoromethoxy)phenyl]-5-{[4-(difluoromethyl)-1H-1,2,3-triazol-1-yl]methyl}-2-ethoxypyridine] reads 100 to 1000 nM.
Compound `COc1ncc(Cc2cnc(C#N)nc2)cc1-c1cccc(F)c1` [Example 39, 5-{[5-(3-Fluorophenyl)-6-methoxypyridin-3-yl]methyl}pyrimidine-2-carbonitrile] showed an EC50 of 1000 to 10000 nM.
The result for `COc1ncc(Cn2cncn2)cc1-c1cnn(C)c1` [Example 248, 2-Methoxy-3-(1-methyl-1H-pyrazol-4-yl)-5-(1H-1,2,4-triazol-1-ylmethyl)pyridine] reads 1000 to 10000 nM; that for `COc1ncc(Cc2cnc(N)nc2)nc1-c1cccc(Cl)c1` [Example 87, 5-{[6-(3-Chlorophenyl)-5-methoxypyrazin-2-yl]methyl}pyrimidin-2-amine], less than 100 nM; that for `CC(C)Oc1ncc(Cc2cnc(N)nc2)cc1-c1cccc(Cl)c1` [Example 41, 5-{[5-(3-Chlorophenyl)-6-(propan-2-yloxy)pyridin-3-yl]methyl}pyrimidin-2-amine], 100 to 1000 nM.
The result for `CCOc1ncc(Cn2ncnc2COC)cc1-c1cccc(OC(F)F)c1` [Example 166, 3-[3-(Difluoromethoxy)phenyl]-2-ethoxy-5-{[5-(methoxymethyl)-1H-1,2,4-triazol-1-yl]methyl}pyridine] reads 100 to 1000 nM; that for `COc1ncc(Cc2cnn(C)c2)cc1-c1cccc(Cl)c1` [Example 79, 3-(3-Chlorophenyl)-2-methoxy-5-[(1-methyl-1H-pyrazol-4-yl)methyl]pyridine], less than 100 nM; that for `COc1ncc(Cc2cnc(OC(F)F)c(-c3cccc(Cl)c3)c2)cn1` [Example 92, 5-{[5-(3-Chlorophenyl)-6-(difluoromethoxy)pyridin-3-yl]methyl}-2-methoxypyrimidine], less than 100 nM.
The result for `COc1ncc(Cc2ccc(C(=O)O)cc2)cc1-c1cccc(Cl)c1` [Example 21, 4-{[5-(3-Chlorophenyl)-6-methoxypyridin-3-yl]methyl}benzoic acid] reads 100 to 1000 nM; that for `COc1ncc(Cc2cnc(OC)c(-c3cccc(Cl)c3)c2)cc1C` [Example 67, 3-(3-Chlorophenyl)-2-methoxy-5-[(6-methoxy-5-methylpyridin-3-yl)methyl]pyridine], 100 to 1000 nM; that for `OCc1ncn(Cc2cnc(OC(F)F)c(-c3ccnc(OC(F)F)c3)c2)n1` [Example 207, (1-{[6-(Difluoromethoxy)-5-[2-(difluoromethoxy)pyridin-4-yl]pyridin-3-yl]methyl}-1H-1,2,4-triazol-3-yl)methanol], 100 to 1000 nM.
Compound `Cc1ccc(Cc2cnc(OC(F)F)c(-c3cccc(Cl)c3)c2)cn1` [Example 72, 3-(3-Chlorophenyl)-2-(difluoromethoxy)-5-[(6-methylpyridin-3-yl)methyl]pyridine] showed an EC50 of less than 100 nM.
As for `Nc1ncc(Cc2cnc(OC(F)F)c(-c3cccc(Cl)c3)c2)s1` [Example 36, 5-{[5-(3-Chlorophenyl)-6-(difluoromethoxy)pyridin-3-yl]methyl}-1,3-thiazol-2-amine], the figure is less than 100 nM; as for `CCOc1ncc(Cc2ccc(C#N)nc2)nc1-c1cccc(OC(F)F)c1` [Example 103, 5-({6-[3-(Difluoromethoxy)phenyl]-5-ethoxypyrazin-2-yl}methyl)pyridine-2-carbonitrile], less than 100 nM; as for `COc1ncc(Cc2ccc(C(N)=O)nc2)nc1-c1cccc(Cl)c1` [Example 90, 5-{[6-(3-Chlorophenyl)-5-methoxypyrazin-2-yl]methyl}pyridine-2-carboxamide], 100 to 1000 nM.
The result for `Nc1ncn(Cc2cnc(OC(F)F)c(-c3cccc(Cl)c3)c2)n1` [Example 219, 1-{[5-(3-Chlorophenyl)-6-(difluoromethoxy)pyridin-3-yl]methyl}-1H-1,2,4-triazol-3-amine] reads less than 100 nM.
On to `COc1ncc(C(O)c2ccc(F)cn2)cc1-c1cccc(Cl)c1` (centres unmarked) [Example 16, [5-(3-Chlorophenyl)-6-methoxypyridin-3-yl](5-fluoropyridin-2-yl)methanol], for which the EC50 was in the range of 1000 to 10000 nM.

For the origin of these results see US9120770B2, “Substituted pyridine and pyrazine compounds as PDE4 inhibitors” (DART NEUROSCIENCE (CAYMAN) LTD., priority 2013, dated 2015).
